Data taken from patent publication US12653873B2, “Peptide antigens and uses thereof” (HUMANITAS MIRASOLE S.P.A., priority 2019, dated 2026).

Legend:
Assay type in all cases: in vivo, mouse
[1] = system: Aldehyde dehydrogenase (ALDH); assay: Aldefluor FACS analysis of dendritic cells from mesenteric lymph nodes after oral tolerance induction; conditions: eight weeks after oral tolerance induction in TAC-operated mice; vs PBS alone
Description: Briefly, eight weeks after oral tolerance induction in TAC-operated mice, mesenteric lymph nodes (MLN) were collected and dendritic cells (DC) were isolated for FACS analysis. Aldehyde dehydrogenase (ALDH) production of retinoic acid from the DC was measured via Aldefluor Fluorescent dye. FACS analysis of DC isolated from MLN of mice fed with the peptides of SEQ ID NO. […] Retinoic acid produced by tolerogenic DC contributes to Regulatory T cell (Treg) generation, essential for tolerance induction. […] Data are plotted as mean±SEM, (n=7-8). Unpaired t-test. * p<0.05.

TAC-operated mice = assay: Oral tolerance protocol followed by induction of Heart Failure via TAC, echocardiography; conditions: oral gavage 0.8 mg per day of each peptide for 4 days, TAC on day 7; 8 weeks after surgery; vs PBS alone
Description: To assess preventive protection potential of oral tolerance with the newly identified peptides from the development of Heart Failure, the inventors pursued an oral tolerance protocol to induce cardio-specific tolerance for the peptides, followed by active induction of Heart Failure via TAC.
Briefly, C57BL6/J 8-week-old male mice were screened at baseline via echocardiography. Each mouse was orally fed with 0.8 mg of each peptide from group 4: the peptide of SEQ ID NO. 1 (14-3-3 protein), the peptide of SEQ ID NO. 5 (Snrpd1 protein), and the peptide of SEQ ID NO. 14 (Atp5o protein) (i.e. 0.8 mg per day of each peptide, thus 2.4 mg/day in total), diluted in 600 μl of Phosphate Buffered-Saline (PBS) or plain PBS (as control) via oral feeding (oral gavage) for 4 days in a row. Three days after the end of this procedure, on day 7, the mice underwent TAC surgery, to experimentally induce Heart Failure. Echocardiographies were performed on both groups of mice to monitor their cardiac functionality at 2, 4 and 8 weeks after TAC-surgery. […] Data were plotted as mean±SEM, (n=8-11). Two-way ANOVA and Tukey's multiple comparison test with matching subjects. ** p<0.01, ***p<0.001.

C57BL6/J mice [2] = assay: Immunization of healthy mice with pooled peptides in CFA/IFA, echocardiography; conditions: echocardiography at 2, 5 and 9 weeks after first subcutaneous injection; 100 μg of each peptide in CFA day 0, IFA boost day 21; vs CTR- (only CFA)
Description: In order to validate the functional relevance of identified antigens recognized by T cells driving HF, the inventors conducted the experiments as described below and schematically represented in FIG. 5.
Briefly, C57BL6/J 8-week-old male mice were screened, via echocardiography, at baseline for heart functionality and randomly divided into three experimental groups. Mice belonging to the negative control group (CTR−, only CFA) were injected subcutaneously (immunized) with 100 μl Complete Freud's Adjuvant (CFA) at day 0 and boosted with 100 μl of Incomplete Freud's Adjuvant (IFA) on day 21, without any antigen. […] Heart functionality of all mice was analyzed via echocardiography at 2, 5 and 9 weeks after the first subcutaneous injection.
The immunization experiments of healthy mice with peptides derived from beta-adrenergic receptor and from 14-3-3, Snrpd1, and Atp5o lead to cardiac dysfunction. […] Left ventricle functionality was measured as % FS (FIG. 6A) and Ejection Fraction (% EF) (FIG. 6B), which measure the volumetric capacity of the left ventricle to pump blood. […]

C57BL6/J mice [3] = assay: Immunization of healthy mice with single peptides in CFA/IFA, echocardiography; conditions: echocardiography at 2, 5 and 9 weeks after first subcutaneous injection; 100 μg peptide in CFA day 0, IFA boost day 21; vs CTR-
Description: C57BL6/J 8-week-old male mice were screened at baseline for heart functionality, via echocardiography, and randomly divided into 5 experimental groups. Mice belonging to control group (CTR−, only CFA) were injected subcutaneously (immunized, but without antigen: negative control) with 100 μl Complete Freud's Adjuvant (CFA) at day 0 and boosted with 100 μl of Incomplete Freud's Adjuvant (IFA) on day 21. Mice belonging to group 3 (CTR+) were injected subcutaneously (immunized, known antigen: positive control) with 100 μg of each of the three peptides (SEQ ID NOs. 15-17) derived from beta-adrenergic receptor and listed in the Table of FIG. 4, emulsified in Complete Freud's Adjuvant (CFA) at day 0 and boosted with 100 μg of the three peptides emulsified in Incomplete Freud's Adjuvant (IFA) on day 21. Mice belonging to group 4_A (Peptide 4_A) were injected subcutaneously (immunized) with 100 μg of the peptide of SEQ ID NO. 1, derived from 14-3-3 protein, emulsified in Complete Freud's Adjuvant (CFA) at day 0 and boosted with 100 μg of each of the three peptides emulsified in Incomplete Freud's Adjuvant (IFA) on day 21. Mice belonging to group 4_B (Peptide 4_B) were injected subcutaneously (immunized) with 100 μg of the peptide of SEQ ID NO. 5, derived from Snrpd1 protein, emulsified in Complete Freud's Adjuvant (CFA) at day 0 and boosted with 100 μg of each of the three peptides emulsified in Incomplete Freud's Adjuvant (IFA) on day 21. Mice belonging to group 4_C (Peptide 4_C) were injected subcutaneously (immunized) with 100 μg of the peptide of SEQ ID NO. 14, derived from Atp5o protein, emulsified in Complete Freud's Adjuvant (CFA) at day 0 and boosted with […] of each of the three peptides emulsified in Incomplete Freud's Adjuvant (IFA) on day 21. On day 0 and day 2, all the mice were intraperitoneally injected with 200 ng of Pertussis Toxin. Heart functionality of all mice was analyzed via echocardiography at 2, 5 and 9 weeks after the first subcutaneous injection. In FIG. 7, the results of echocardiography analysis of cardiac functionality parameters % FS and % EF of C57BL6/J mice immunized with the peptide of SEQ ID NO. 1 (14-3-3 protein), the peptide of SEQ ID NO. 5 (Snrpd1 protein), or the peptide of SEQ ID NO. 14 (Atp5o protein) are shown. […] Data are plotted as mean±SEM, (n=4-6). Two-way ANOVA and Tukey's multiple comparison test with matching subjects. * p<0.05, ** p<0.01, ***p<0.001.

Substance	ALDH activity of DC isolated from MLN [1]	mean fluorescence intensity (MFI) of Aldefluor dye in DC [1]	percentage of ALDH positive DC [1]	cardiac functionality, % EF (TAC-operated mice)	cardiac functionality, % FS (TAC-operated mice)	cardiac functionality, % FS (C57BL6/J mice [2])	cardiac functionality, Ejection Fraction (% EF) (C57BL6/J mice [2])	% EF (C57BL6/J mice [3])	% FS (C57BL6/J mice [3])
Group 4: combination of the three peptides of SEQ ID NOs. 1, 5 and 14, derived from murine 14-3-3, Snrpd1 and Atp5o proteins (chain 1 LGLALNFSVFYYEIL; chain 2 EPVQLETLSIRGNNIRYFILPDSLP; chain 3 LTANLMNLLAENGRL; listed as Homo sapiens, listed as Mus musculus)	significant increase in ALDH activity	significant increase	significant increase	significantly better cardiac functionality	significantly better cardiac functionality	significant reduction of cardiac functionality	significant reduction of cardiac functionality		
Peptide 4_A: peptide of SEQ ID NO. 1, derived from 14-3-3 protein (LGLALNFSVFYYEIL; listed as Homo sapiens)								significantly reduced	significantly reduced
Peptide 4_B: peptide of SEQ ID NO. 5, derived from Snrpd1 protein (EPVQLETLSIRGNNIRYFILPDSLP; listed as Homo sapiens)								significantly reduced	significantly reduced
Peptide 4_C: peptide of SEQ ID NO. 14, derived from mouse Atp5o protein (LTANLMNLLAENGRL; listed as Mus musculus)								significantly reduced	significantly reduced
